Results as given in article PMC11796312, “Multifunctional, Fluorene‐Based Modulator of Cholinergic and GABAergic Neurotransmission as a Novel Drug Candidate for Palliative Treatment of Alzheimer's Disease” (Angewandte Chemie (International Ed. in English), 2024).
“Also recorded” adds a separate entry of the source.

Legend:
mice [1] = assay: Elevated plus maze (EPM); assay type: in vivo; conditions: vs control
Method: Animals and housing conditions
In all pharmacodynamic in vivo experiments, except for the Barnes maze (BM) task, adult male Albino Swiss (CD-1) mice weighing between 18 and 22 g and purchased from the Animal Breeding Farm of the Faculty of Pharmacy, Jagiellonian University Medical College were used. In BM task, C57BL/6J mice of the same weight (Animalab, Poland) were used.
Animals were housed in cages (10 mice per cage) at a constant temperature of 22 ± 2 °C, humidity of 55 ± 10%, and a light/dark (12:12) cycle (lights on at 7 AM). Before the experiments, the animals had unlimited access to food and water. Specified conditions for the maintenance of mice were ensured throughout the experiments, including tree bedding (Transwior, Poland) and cage enrichment (tunnels, nesting material, wooden igloos, etc.). For the behavioral test, the mice were selected randomly; each group consisted of 7-12 mice. The experiments were performed between 9 AM and 3 PM. After in vivo tests, the animals were […]
Ethical approval statement
The procedures for the maintenance and treatment of laboratory animals were approved by the 1st Local Ethics Committee of the Jagiellonian University in Krakow (Approvals No. […]
(§1) of the closed arms. […] The following parameters were measured in this test: time spent in open arms of the EPM device and the number of entries to open arms. […]

mice [2] = assay: Locomotor activity test; assay type: in vivo; conditions: 10 and 30 mg/kg i.p.
Method: Effect on depressive-like behavior - forced swim test
The experiment was carried out according to Porsolt et al.[48] with small modifications.
Briefly, mice were individually placed in a glass cylinder (25 cm high, 10 cm in diameter) containing 11 cm of water maintained at 23–25 °C and were left therein for 6 min. A mouse was regarded as immobile when it remained floating on the water, making only small movements to keep its head above it. The total duration of immobility was measured during the final 4 min of a 6-min test session.
Effect on anxiety - four-plate test
The four-plate apparatus (FPT; Bioseb, France) consists of a cage (25 × 18 × 16 cm) that is floored with four rectangular metal plates (11 × 8 cm). The plates are separated from one another by a 4 mm gap, and they are connected to an electroshock generator. […] The number of punished crossings was counted […]
as §1
crossings) were counted during the next 60 min of the test. […]
For the analysis of data obtained in the in vivo tests GraphPad Prism software (v. 9.0, CA, USA) was used. Numerical results from the tests were expressed as mean ± standard error of the mean (SEM). […]
In this fear-motivated task the effect of 6 on scopolamine-induced cognitive dysfunction was assessed. […]

`O[C@H](CNCC1CC1)[C@H](Cc1ccccc1)NC1c2ccccc2-c2ccccc21` [Compound 6] was tested, and the “time spent in open arms” value (mice [1]; 0.1 and 1 mg/kg i.p.) was “prolonged time spent in open arms; also recorded: significant prolongation of time spent in the open arms”, the “number of open arm entries” value (mice [1]; 1 and 10 mg/kg i.p.) was “increased the number of open arm entries; also recorded: increased number of entries into the open arms” and the locomotor activity (mice [2]) was “None of these doses significantly affected the locomotor activity”.
